Patent US8343964B2, “Indolic derivatives, their preparation processes and their uses in particular as antibacterials” (Universite Joseph Fourier, priority 2007, dated 2013)
Converted amounts (≈) assume the structure as drawn. Where two headings read alike, the source gives them in different places.

Columns and labels:
[1] = system: S. aureus ITS-1199B (overexpression of the efflux pump NorA); format: cell-based, Staphylococcus aureus; conditions: resistant strain R NorA; for MIC (μg/ml) of compound in the presence of ciprofloxacin at 4 μg/ml (c/4): ciprofloxacin 4 μg/ml (c/4); for MIC (μg/ml) of compound in the presence of ciprofloxacin at 8 μg/ml (c/2): ciprofloxacin 8 μg/ml (c/2)
Method: (§1) The two strains used are Staphylococcus aureus (ATCC 25923, sensitive Gram-positive strain) denoted S, and S. aureus ITS-1199 (without efflux), as well as its derivative S. aureus ITS-1199B (Kaatz, G. W., Seo, S. M., Antimicrob. Agents Chemother., 1995, 39, 2650-2655) having a resistance to the fluoroquinolones due to the overexpression of the efflux pump NorA and denoted R NorA. The bacteria are cultured at 37° C. in Mueller-Hinton (MH, Bio Rad) or Luria-Bertani (LB, Difco) Medium.
The experiences are carried out as above, but using the resistant strain, and looking at the effect of the mixture of the molecule to be tested and the antibiotic to which the bacterium is resistant. Thus, the method of a series of dilutions in Mueller-Hinton medium is used, also starting from a molecule concentration of 100 or 128 μg/ml.

[2] = system: Staphylococcus aureus (ATCC 25923, sensitive Gram-positive strain); assay: Determination of the antibacterial activity: MIC in liquid Mueller-Hinton medium (intrinsic antibacterial activity); format: cell-based
Method: as §1
The experiments described hereafter are carried out following the recommendations of the Comité de l'Antibiogramme de la Société Française de Microbiologic (http://www.sfm.asso.fr/nouv/general.php See also Courvalin, P., Goldstein, F., Philippon, A., Sirot J. L'antibiogramme, 1985, M.P.C.-Videom editor). The antibacterial activity of the molecules was determined in liquid medium using a Biomek 2000 robot (Beckman) and micro-titration plates. The final volume in each well is 200 μl. A maximum volume of 5 μl of a solution of the molecule in DMSO is added to each well containing 10^6 CFU/ml (Colony Forming Units) of bacteria in MH medium. The final concentration of the molecule to be tested must be 100 or 128 μg/ml. […] Ampicillin is used as a positive control and the same volume of DMSO as that used to introduce the molecule (generally 2 to 5 μl) as a negative control.
The experiments are repeated three times.

[3] = system: KB (human mouth carcinoma); assay: In vitro cytotoxicity on KB cells; format: cell-based
Method: (§2) The in vitro cytotoxicity results, measured at a concentration of 10^−5 M, are described below. The cytotoxicity was measured on 5 cell lines—KB (human mouth carcinoma), MCF7 (breast carcinoma) and MCF7R (resistant strain), Vero (monkey kidney) and HCT116 (human colon tumour).

[4] = In vitro cytotoxicity on Vero cells; format: cell-based; conditions: monkey
Method: as §2

[5] = In vitro cytotoxicity on HCT116 cells; format: cell-based; conditions: human, concentration of 10^−5 M, read-out: Average cytotoxicity (% inhibition), HCT116 cells
Method: as §2

[6] = ATCC25923, 18 h, read-out: MIC / Antibacterial Activity (AA)
[7] = Vero cells (monkey kidney), concentration of 10^−5 M, read-out: Average cytotoxicity (% inhibition), Vero cells
[8] = HCT116 cells (human colon tumour)
[9] = ATCC25923, compound alone, lowest concentration allowing no growth after 18 hours at 37° C., 10^6 CFU/ml, read-out: MIC / Antibacterial Activity (AA)
[10] = concentration of 10^−5 M, read-out: Average cytotoxicity (% inhibition), Vero cells

SMILES	MIC (μg/ml) of compound in the presence of ciprofloxacin at 8 μg/ml (c/2) [1] [µg/mL]	Average cytotoxicity (% inhibition), KB cells ([3]; concentration of 10^−5 M) [%]	cytotoxicity [4, 7] [%]	cytotoxicity [5, 8] [%]	further results
COc1cc(CN(O)C(CNC(=O)OC(C)(C)C)c2c[nH]c3ccc(Br)cc23)cc(OC)c1 (centres unmarked) [(10)]	–	–	–	–	MIC (μg/ml) of compound in the presence of ciprofloxacin at 4 μg/ml (c/4) [1]: 8 µg/mL
CC(C)(C)OC(=O)NCC(c1c[nH]c2ccc(Br)cc12)[N+]([O-])=Cc1ccccc1 (centres unmarked) [(20 bis)]	1	–	–	–	MIC (μg/ml) of compound in the presence of ciprofloxacin at 4 μg/ml (c/4) [1]: 1 µg/mL
COc1ccc(/C=[N+](\[O-])C(CNC(=O)OC(C)(C)C)c2c[nH]c3ccc(Br)cc23)cc1 (centres unmarked) [(20)]	<3	–	–	–	MIC (μg/ml) of compound in the presence of ciprofloxacin at 4 μg/ml (c/4) [1]: 3 µg/mL
CC(C)(C)OC(=O)NCC(NO)c1c[nH]c2ccc(Br)cc12 (centres unmarked) [(21), 1-N-(hydroxy)amino-2-[N′-(tert-butoxycarbonyl)amino]-1-(5′-bromo-3′-indolyl) ethane]	–	0	11	28	MIC [2, 6]: 50 µg/mL (≈ 135 µM)
CC(C)(C)OC(=O)NCC(NO)c1c[nH]c2cc(Br)ccc12 (centres unmarked) [(22)]	–	0	22	37	MIC [2, 6]: 50 µg/mL (≈ 135 µM)
CC(C)(C)OC(=O)NCC(N)c1c[nH]c2ccccc12 (centres unmarked) [(23)]	4	2	11	5	–
COc1ccc2[nH]cc(C(N)CNC(=O)OC(C)(C)C)c2c1 (centres unmarked) [(24), 1-amino-[2-N′-(tert-butoxycarbonyl)amino]-1-(5′-methoxy-3′-indolyl) ethane]	4	2	12	13	MIC ([2]; ATCC25923): ≤ 10 µg/mL
CC(C)(C)OC(=O)NCC(N)c1c[nH]c2ccc(Br)cc12 (centres unmarked) [(25), 1-amino-2-[N′-(tert-butoxycarbonyl)amino]-1-(5′-bromo-3′-indolyl) ethane]	–	–	–	–	MIC [2, 6]: 25 µg/mL (≈ 70.6 µM)
CC(C)(C)OC(=O)NCC(N)c1c[nH]c2cc(Br)ccc12 (centres unmarked) [(26)]	–	–	–	–	MIC [2, 6]: 25 µg/mL (≈ 70.6 µM)
Cl.Cl.NCC(N)c1c[nH]c2ccc(Br)cc12 (centres unmarked) [(27), 1,2-diamino-1-(5′-bromo-3′-indolyl)ethane dihydrochloride]	–	0	–	–	MIC [2, 9]: 25 µg/mL; cytotoxicity [4, 10]: 14%; cytotoxicity [5]: 26%
NCC(N)c1c[nH]c2cc(Br)ccc12 (centres unmarked) [(28)]	–	–	–	–	MIC [2, 9]: 25 µg/mL (≈ 98.4 µM)
COc1ccc2c(C(N)CN)c[nH]c2c1 (centres unmarked) [(31)]	–	–	–	–	MIC [2, 9]: 64 µg/mL (≈ 312 µM); Average cytotoxicity (% inhibition), KB cells ([3]; human): 41%; cytotoxicity [4]: 27%
Cl.Cl.NCC(NO)c1c[nH]c2ccc(Br)cc12 (centres unmarked) [(32), 1-(N-hydroxy)-1,2-diamino-1-(5′-bromo-3′-indolyl)ethane dihydrochloride]	–	23	–	–	MIC [2, 9]: 3 µg/mL; cytotoxicity [4, 10]: 20%
Cl.Cl.NCC(NO)c1c[nH]c2cc(Br)ccc12 (centres unmarked) [(33)]	–	14	–	–	MIC [2, 9]: 6 µg/mL; cytotoxicity [4, 10]: 31%; cytotoxicity [5]: 37%
CC(C)(C)OC(=O)NCC(NC(=O)OC(C)(C)C)c1c[nH]c2cc(Br)ccc12 (centres unmarked) [(36)]	–	–	–	–	MIC (μg/ml) of compound in the presence of ciprofloxacin at 4 μg/ml (c/4) [1]: 8 µg/mL
CC(c1c[nH]c2ccccc12)N(O)Cc1ccccc1 (centres unmarked) [(37)]	>8	–	–	–	MIC (μg/ml) of compound in the presence of ciprofloxacin at 4 μg/ml (c/4) [1]: >8 µg/mL
COc1ccc2[nH]cc(C(C)N(O)Cc3ccccc3)c2c1 (centres unmarked) [(38)]	>8	0	5	15	–
COc1ccc(CN(O)C(CC(C)C)c2c[nH]c3ccccc23)c(OC)c1 (centres unmarked) [(40)]	>8	13	32	46	–
